Here are results for 8 compounds from patent publication US20250041284A1, “TREATMENT OF NEUROLOGICAL DISORDERS” (Praxis Precision Medicines, Inc., priority 2022, published 2025).

The subject of series [1] is MES-induced tonic hindlimb extension in male CD-1 mice. Briefly: MES acute seizure model, protection from tonic hindlimb extension (Example 9). The note with it: for ED50: Mus musculus, administered dose. The series is classed as in vivo, mouse. The method, then:
Male CD-1 mice (Vital River, Beijing, China) approximately 6 weeks old were obtained for the study. Body weights were between 20.5 grams and 38.5 grams at the time the experiments were carried out. […] Food and water were available ad libitum.
Treatment was conducted using Compound 1 and 35% 2-hydroxypropyl-β-cyclodextrin (35% HPBCD, used as a negative control). Compound 1 stock solution was prepared fresh each experiment day in 35% HPBCD and protected from light. The stock solution was diluted with vehicle for lower doses.
Mice were brought to the test room at least one hour before the start of the experiment. Mice were administered valproate (VPA; 400 mg/kg, intraperitoneally); or vehicle (35% HPBCD, 10 mL/kg, intraperitoneally); or Compound 1 (0.3 mg/kg, 1 mg/kg, 3 mg/kg or 10 mg/kg, orally) 30 minutes prior to the MES test.
The electroshock apparatus was set to deliver a 50 mA square-wave stimulus, with a 0.8 second duration, a pulse width of 10 milliseconds, and a frequency of 50 Hz. A pair of custom stainless-steel electrodes were soaked in 0.2% agar, and then the subject received bilateral transauricular stimulation through ear-clip electrodes. During the stimulation, mice were manually restrained then released immediately into an observation cage where they were monitored continuously for 60 seconds by an observer blinded to treatment group.
Mice were anesthetized with CO2 and terminal plasma and brain tissue samples were collected. […] The supernatant plasma was pipetted into Eppendorf tubes.
All statistical analyses were conducted using GraphPad Prism 9.3. Means were combined and standard error was calculated using the Satterthwaite Approximation to combine standard deviations. […] ED50 and EC50 values were calculated from these fit curves.

The subject of series [2] is psychomotor seizures induced by 6-Hz electrical stimulation in wild-type CD-1 mice. Put plainly: 6-Hz psychomotor seizure model. The note with it: 600 mg/kg intraperitoneally. The series is classed as in vivo, mouse. An excerpt:
This study evaluated the efficacy of Compound 1 in attenuating psychomotor seizures induced by 6-Hz electrical stimulation at two different stimulation intensities (32 and 44 mA) in wild-type CD-1 mice. Psychomotor seizures are defined as the expression of at least one of the following behaviors: stun/immobility, forelimb clonus, straub tail or lateral head movement within 30 seconds of the stimulus. Protection is defined as a complete absence of the above behaviors within 30 seconds of the stimulus. Doses of Compound 1 used were 1 mg/kg, 3 mg/kg and 6 mg/kg administered orally. Valproate (600 mg/kg, administered intraperitoneally) was used as a positive control.
Male CD-1 mice (Charles River Laboratories; St. Constant, Quebec, CAN) were used for the study. Body weights at the time the experiment was carried out were 30-40 grams. The mice were group-housed in polycarbonate cages according to standard operating procedures. Animals were maintained on a 12-hour light/12 hour dark cycle, with all experimental activities occurring during the light phase. Food and water were available ad libitum. Mice acclimated to the test facility for at least 72 hours prior to testing.
Treatment was conducted using Compound 1 and 35% 2-hydroxypropyl-β-cyclodextrin (35% HPBCD, used as a negative control). Compound 1 stock solution was prepared fresh each experiment day in 35% HPBCD. […] Valproate was prepared fresh each experiment day in a vehicle of saline and dosed at 10 mL/kg.
Mice were administered vehicle (35% HPBCD), a single dose of Compound 1 (1 mg/kg, 3 mg/kg or 6 mg/kg) or valproate (600 mg/kg). Vehicle and Compound 1 were administered via oral gavage 30 minutes prior to […]. Valproate was administered as an intraperitoneal injection 60 minutes prior to the electrical stimulus.
Immediately prior to conducting the 6-Hz seizure test, a brief neurological assessment was performed. Each animal was visually assessed and received a score from 0 to 3 according to the following scoring system::neurological score of 0 corresponds to a normal status; neurological score of 1 corresponds to a modest decrease in spontaneous activity; neurological score of 2 corresponds to a marked decrease in spontaneous activity; and neurological score of 3 corresponds to loss of righting reflex.
Corneal electrodes moistened with saline (ECT unit 57800; Ugo Basile) were used to deliver the electrical stimulus (6-Hz, 0.2 millisecond pulse width, 3 seconds duration). The current delivered was either 32 mA or 44 mA. Immediately after the electrical stimulus, each mouse was monitored continuously for 30 seconds by an observer blinded to the treatment group. […] Mice were scored for the presence or absence of each seizure behavior, with a maximum total score of 4. […] At the end of the 6-Hz seizure test, plasma and brain samples were collected.
Mice were anesthetized with isoflurane, whole blood was collected via cardiac puncture and brains were harvested. Whole blood was collected in potassium EDTA tubes and centrifuged at ˜3300 g for 5 minutes at 4° C. to isolate plasma. Plasma and brain samples were stored at −80° C. and analyzed to determine levels of Compound 1.
All statistical analyses were conducted using GraphPad Prism 9.3. Seizure scores were compared using Kruskal-Wallis test, followed by Dunn's post hoc and p<0.05 was considered statistically significant.

The target of series [3] is T1, hNaV1.6 (Homo sapiens, UniProt Q9UQD0).
T1 construct: expressed in transfected cells; host or cells: HEK cells
Put plainly: Peak INa voltage-dependent block (VDB), automated patch clamp in HEK cells. The series is classed as cell-based. Conditions: for Ratio to Pers. INa (Peak INa VDB): VDB IC50 / persistent INa IC50; for Peak INa VDB Hill slope: voltage-dependent block.

Series [4] has as its target T2, human NaV1.6 (Homo sapiens, UniProt Q9UQD0).
T2 construct: HEK-293 cell lines stably expressing human NaV1.6 (NP_055006) were used; expressed in transfected cells
Briefly: Peak INa use-dependent block (UDB-10 Hz), automated patch clamp in HEK cells. Format: cell-based. The note with it: for Ratio to Pers. INa (Peak INa UDB-10 Hz): UDB IC50 / persistent INa IC50; for Peak INa UDB-10 Hz Hill slope: use-dependent block 10 Hz; for activity dependent block of peak INa: in words, FIGS. 7A-7C; for UDB preference to TB: TB IC50 / UDB IC50. (In general: The patch-clamp technique gives a direct electrical read-out from membranes.)

Series [5] addresses T2, human NaV1.6. Put plainly: Persistent (late) INa inhibition, ATX-II activated, automated patch clamp in HEK cells. Format: cell-based. Conditions: for Persistent INa Hill slope: hNaV1.6 in HEK cells, ATX-II.
The target in series [6] is T2, human NaV1.6. Put plainly: Peak INa tonic block (TB), automated patch clamp in HEK cells. The series is classed as cell-based. The note with it: for Ratio to Pers. INa (Peak INa TB): peak INa TB IC50 / persistent INa IC50; for Peak INa TB Hill slope: tonic block.
For series [7], the target named is T1, hNaV1.6. Put plainly: Apparent binding (KON) and unbinding (KOFF) rates inferred from INa inhibition kinetics. The note with it: read-out: apparent KON. The series is classed as cell-based.
Setting [8] is: 400 mg/kg intraperitoneally, listed as valproate.

Entries after “also recorded” stand apart in the source; their conditions may differ. Where two headings read alike, the source gives them in different places.

T2 sequence (Q9UQD0 whole entry): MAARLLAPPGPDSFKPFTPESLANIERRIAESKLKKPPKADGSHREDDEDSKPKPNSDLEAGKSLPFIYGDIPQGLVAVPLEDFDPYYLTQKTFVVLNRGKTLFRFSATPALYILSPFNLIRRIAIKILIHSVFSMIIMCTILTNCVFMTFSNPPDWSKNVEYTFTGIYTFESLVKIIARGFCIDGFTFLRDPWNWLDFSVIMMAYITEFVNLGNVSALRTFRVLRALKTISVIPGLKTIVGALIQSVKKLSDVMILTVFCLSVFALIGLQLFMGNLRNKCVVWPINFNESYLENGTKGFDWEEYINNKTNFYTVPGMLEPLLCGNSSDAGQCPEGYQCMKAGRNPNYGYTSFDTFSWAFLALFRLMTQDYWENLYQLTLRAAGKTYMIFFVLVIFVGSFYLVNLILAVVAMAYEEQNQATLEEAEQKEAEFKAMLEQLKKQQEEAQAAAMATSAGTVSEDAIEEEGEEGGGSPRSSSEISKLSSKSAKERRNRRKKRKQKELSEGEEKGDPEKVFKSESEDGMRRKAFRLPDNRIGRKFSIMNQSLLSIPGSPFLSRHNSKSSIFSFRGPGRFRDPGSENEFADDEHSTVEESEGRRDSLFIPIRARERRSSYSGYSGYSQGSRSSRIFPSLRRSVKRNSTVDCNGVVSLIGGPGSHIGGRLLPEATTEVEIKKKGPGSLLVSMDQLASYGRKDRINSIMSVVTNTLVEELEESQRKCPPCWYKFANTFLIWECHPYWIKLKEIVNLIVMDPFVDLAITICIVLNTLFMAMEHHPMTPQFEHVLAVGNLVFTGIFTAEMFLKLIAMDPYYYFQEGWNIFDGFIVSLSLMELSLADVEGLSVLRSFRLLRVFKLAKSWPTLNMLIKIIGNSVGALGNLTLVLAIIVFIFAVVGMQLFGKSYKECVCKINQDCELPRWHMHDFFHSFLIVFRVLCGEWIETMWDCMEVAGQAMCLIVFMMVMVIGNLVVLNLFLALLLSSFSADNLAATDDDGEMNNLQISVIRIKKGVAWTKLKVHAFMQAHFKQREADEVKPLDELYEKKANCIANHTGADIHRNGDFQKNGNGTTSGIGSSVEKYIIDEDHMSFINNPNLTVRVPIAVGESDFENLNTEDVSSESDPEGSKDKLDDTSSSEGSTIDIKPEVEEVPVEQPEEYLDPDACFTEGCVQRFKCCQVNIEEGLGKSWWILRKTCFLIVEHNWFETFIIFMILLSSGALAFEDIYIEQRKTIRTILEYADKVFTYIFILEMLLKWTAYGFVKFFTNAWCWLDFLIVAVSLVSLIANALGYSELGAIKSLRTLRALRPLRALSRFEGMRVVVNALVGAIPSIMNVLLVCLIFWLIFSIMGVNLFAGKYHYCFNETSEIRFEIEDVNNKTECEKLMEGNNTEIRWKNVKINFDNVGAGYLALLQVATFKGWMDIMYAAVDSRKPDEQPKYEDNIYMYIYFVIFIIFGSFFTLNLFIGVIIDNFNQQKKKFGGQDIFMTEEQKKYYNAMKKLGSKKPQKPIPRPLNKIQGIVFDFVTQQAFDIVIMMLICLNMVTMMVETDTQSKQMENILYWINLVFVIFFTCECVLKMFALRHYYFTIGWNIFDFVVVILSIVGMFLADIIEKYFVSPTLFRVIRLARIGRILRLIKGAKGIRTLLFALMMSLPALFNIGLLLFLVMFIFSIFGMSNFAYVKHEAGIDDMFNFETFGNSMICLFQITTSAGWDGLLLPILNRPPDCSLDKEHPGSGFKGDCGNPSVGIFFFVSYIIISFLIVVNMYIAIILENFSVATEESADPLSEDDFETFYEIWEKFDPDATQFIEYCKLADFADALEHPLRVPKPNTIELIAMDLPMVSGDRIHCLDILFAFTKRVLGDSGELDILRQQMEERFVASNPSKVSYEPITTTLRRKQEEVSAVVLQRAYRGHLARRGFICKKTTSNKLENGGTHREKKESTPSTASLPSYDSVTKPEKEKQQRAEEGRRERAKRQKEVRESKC
T1 sequence (Q9UQD0 whole entry): as above

In the case of `CCCC(CCC)C(=O)O` [Valproic acid], the “sedation before MES test” value in series [1] (400 mg/kg intraperitoneally, listed as Valproate) is “mild to moderate sedation”. Also, in series [1] (setting [8]), the “protection against MES-induced hindlimb extension” value was “all mice n=24 were seizure-free; also recorded: protected mice from MES-induced tonic hindlimb extension” and the “sedation before MES test” value is “nearly all valproate-treated mice showed mild to moderate sedation”. Further, in series [2], the “neurological score (average)” value is reported as 1.2 and the spontaneous activity entry is “modest to marked decrease in spontaneous activity”.
Consider `COC[C@@H](NC(C)=O)C(=O)NCc1ccccc1` [Lacosamide, lacosamide], for which, on hNaV1.6 [3], the “Ratio to Pers. INa (Peak INa VDB)” value is reported as 0.3 and the “Peak INa VDB Hill slope” value is reported as “(1.2)”. At human NaV1.6 [4], the “Ratio to Pers. INa (Peak INa UDB-10 Hz)” value is reported as 0.8 and the “Peak INa UDB-10 Hz Hill slope” value is listed as “(1.3)”. The “Persistent INa Hill slope” value on human NaV1.6 [5] is “(0.9)”.
As for `NC(=O)N1c2ccccc2CC(=O)c2ccccc21` [Oxcarbazepine, oxcarbazepine], on hNaV1.6 [3], the “Ratio to Pers. INa (Peak INa VDB)” value was determined as 0.3 and the “Peak INa VDB Hill slope” value is “(1.1)”. For the same compound, on human NaV1.6 [5], the “Persistent INa Hill slope” value is “(1.0)”. Also, on human NaV1.6 [6], the “Ratio to Pers. INa (Peak INa TB)” value turned out to be 8 and the “Peak INa TB Hill slope” value is “(1.7)”.
Turning to `Cc1cc(N2CCc3cc(F)ccc3C2)cc(C)c1NC(=O)CC(C)(C)C` [XEN1101], the 50% effect level in series [1] (ED50) was put at a dose of 3.9 mg/kg.
For the compound `Nc1nnc(-c2cccc(Cl)c2Cl)c(N)n1` [Lamotrigine, lamotrigine], in series [1], the 50% effect level (ED50) was put at a dose of 3.8 mg/kg. The “Peak INa VDB Hill slope” value at hNaV1.6 [3] is reported as “(0.9)”. For the same compound, on human NaV1.6 [4], the “activity dependent block of peak INa” value was “minimal activity dependent block of peak INa” and the “Peak INa UDB-10 Hz Hill slope” value was “(1.0)”. In addition, the “Persistent INa Hill slope” value on human NaV1.6 [5] is reported as “(1.0)”. For the same compound, the “Peak INa TB Hill slope” value on human NaV1.6 [6] is listed as “(0.8)”.
On to `NC(=O)N1c2ccccc2C=Cc2ccccc21` [Carbamazepine, carbamazepine], for which the ED50 – broadly, the dose at which the effect has come halfway, by size or by number of responders – in series [1] was found to be 5.4 mg/kg. On hNaV1.6 [3], the “Ratio to Pers. INa (Peak INa VDB)” value worked out at 0.6 and the “Peak INa VDB Hill slope” value was “(0.9)”. Besides, at human NaV1.6 [4], the “UDB preference to TB” value was “no UDB observed”, the “Ratio to Pers. INa (Peak INa UDB-10 Hz)” value was 18, the “activity dependent block of peak INa” value is “minimal activity dependent block of peak INa” and the “Peak INa UDB-10 Hz Hill slope” value is “(0.9)”. Moreover, the “Persistent INa Hill slope” value at human NaV1.6 [5] is given as “(1.1)”. The “preference for persistent INa relative to peak INa” value on human NaV1.6 [5] (in words, FIGS. 1A-1D) is given as “no preference for persistent INa”. On human NaV1.6 [6], the “Ratio to Pers. INa (Peak INa TB)” value is 30 and the “Peak INa TB Hill slope” value was “(1.0)”. Besides, the kon – broadly, the second-order rate constant of association – on hNaV1.6 [7] (development of inhibition of hNaV1.6 INa) was 11000 M⁻¹ s⁻¹.
With `O=C1NC(=O)C(c2ccccc2)(c2ccccc2)N1` [Phenytoin, phenytoin], on hNaV1.6 [3], the “Ratio to Pers. INa (Peak INa VDB)” value came to 0.8 and the “Peak INa VDB Hill slope” value is listed as “(1.0)”. At human NaV1.6 [4], the “Ratio to Pers. INa (Peak INa UDB-10 Hz)” value worked out at 15 and the “Peak INa UDB-10 Hz Hill slope” value is reported as “(0.6)”. Moreover, on human NaV1.6 [5], the “Persistent INa Hill slope” value is reported as “(0.8)”.
As for `NC(=O)O[C@@H](Cn1ncnn1)c1ccccc1Cl` [Cenobamate, cenobamate], the 50% effect level in series [1] (ED50) was put at a dose of 4.1 mg/kg. On hNaV1.6 [3], the “Ratio to Pers. INa (Peak INa VDB)” value is listed as 0.9 and the “Peak INa VDB Hill slope” value is listed as “(0.9)”. For the same compound, at human NaV1.6 [4], the “UDB preference to TB” value was determined as 2.3 ×, the “Ratio to Pers. INa (Peak INa UDB-10 Hz)” value is given as 11 and the “Peak INa UDB-10 Hz Hill slope” value is recorded as “(0.7)”. At human NaV1.6 [5], the “Persistent INa Hill slope” value was “(1.1)”. Besides, at human NaV1.6 [6], the “Ratio to Pers. INa (Peak INa TB)” value is reported as 24 and the “Peak INa TB Hill slope” value was “(1.1)”. For the same compound, the kon at hNaV1.6 [7] was 19000 M⁻¹ s⁻¹.
